Assay results: the NIST ThermoML archive (doi:10.1021/je050519g)
± gives the expanded uncertainty stated by the source.

Key:
[1] = 293.15 K; for surface tension liquid-gas: Pendant drop shape; for mass density: 101.33 kPa, Liquid
[2] = xn = mol fraction of the nth substance listed; settings: 293.15 K; for surface tension liquid-gas: Pendant drop shape; for mass density: 101 kPa, Liquid

CC#N [acetonitrile]
[1]
Settings	mass density [kg/m3]	surface tension liquid-gas [mN/m]
–	778.3 ± 0.31	29.25 ± 0.34

CC#N [acetonitrile] + CCCCO
[2]
Settings	mass density [kg/m3]	surface tension liquid-gas [mN/m]
x1 = 0.1026	805.36 ± 0.34	24.65 ± 0.32
x1 = 0.2021	803.18 ± 0.34	24.78 ± 0.32
x1 = 0.302	800.8 ± 0.33	24.94 ± 0.32
x1 = 0.5024	795.42 ± 0.32	25.52 ± 0.32
x1 = 0.7014	789.23 ± 0.31	26.53 ± 0.33
x1 = 0.8007	785.7 ± 0.31	27.25 ± 0.33
x1 = 0.8995	782.01 ± 0.3	28.14 ± 0.34

CC#N [acetonitrile] + CCCO
[2]
Settings	mass density [kg/m3]	surface tension liquid-gas [mN/m]
x1 = 0.1004	799.54 ± 0.34	24.02 ± 0.32
x1 = 0.2018	797.63 ± 0.34	24.23 ± 0.32
x1 = 0.3013	795.62 ± 0.33	24.52 ± 0.32
x1 = 0.5004	791.05 ± 0.32	25.32 ± 0.32
x1 = 0.7003	785.97 ± 0.31	26.5 ± 0.33
x1 = 0.8002	783.29 ± 0.31	27.27 ± 0.33
x1 = 0.8997	780.68 ± 0.3	28.19 ± 0.34

CC#N [acetonitrile] + CCO
[2]
Settings	mass density [kg/m3]	surface tension liquid-gas [mN/m]
x1 = 0.0999	786.57 ± 0.31	22.81 ± 0.31
x1 = 0.2007	785.99 ± 0.31	23.3 ± 0.31
x1 = 0.3039	785.05 ± 0.3	23.85 ± 0.31
x1 = 0.5001	783.08 ± 0.3	25.06 ± 0.32
x1 = 0.6994	780.89 ± 0.3	26.51 ± 0.33
x1 = 0.8013	779.8 ± 0.3	27.36 ± 0.33
x1 = 0.8996	778.91 ± 0.3	28.26 ± 0.34

CC#N [acetonitrile] + CO
[2]
Settings	mass density [kg/m3]	surface tension liquid-gas [mN/m]
x1 = 0.1001	788.46 ± 0.35	23.8 ± 0.32
x1 = 0.2011	788.04 ± 0.34	24.73 ± 0.32
x1 = 0.2996	787.13 ± 0.33	25.53 ± 0.32
x1 = 0.4997	784.82 ± 0.32	26.85 ± 0.33
x1 = 0.7012	782.13 ± 0.31	27.94 ± 0.34
x1 = 0.8009	780.75 ± 0.31	28.42 ± 0.34
x1 = 0.8956	779.47 ± 0.31	28.85 ± 0.34

CCCCO [butan-1-ol]
[1]
Settings	mass density [kg/m3]	surface tension liquid-gas [mN/m]
–	807.33 ± 0.35	24.5 ± 0.32

CCO [ethanol]
[1]
Settings	mass density [kg/m3]	surface tension liquid-gas [mN/m]
–	786.44 ± 0.31	22.31 ± 0.3

CO [methanol]
[1]
Settings	mass density [kg/m3]	surface tension liquid-gas [mN/m]
–	787.83 ± 0.36	22.78 ± 0.31

CCCCCO [pentan-1-ol]
[1]
Settings	mass density [kg/m3]	surface tension liquid-gas [mN/m]
–	815.11 ± 0.5	25.46 ± 0.34

CCCCCO [pentan-1-ol] + CC#N
[2]
Settings	mass density [kg/m3]	surface tension liquid-gas [mN/m]
x2 = 0.1003	812.2 ± 0.47	25.49 ± 0.34
x2 = 0.2031	809.06 ± 0.44	25.54 ± 0.34
x2 = 0.3014	806.03 ± 0.41	25.57 ± 0.33
x2 = 0.5003	799.64 ± 0.37	25.82 ± 0.33
x2 = 0.7	792.42 ± 0.33	26.64 ± 0.33
x2 = 0.8001	788.11 ± 0.32	27.29 ± 0.33
x2 = 0.8993	783.38 ± 0.31	28.11 ± 0.34

CCCO [propan-1-ol]
[1]
Settings	mass density [kg/m3]	surface tension liquid-gas [mN/m]
–	801.3 ± 0.4	23.78 ± 0.32
